Here are results for ten compounds from ChEMBL document CHEMBL1201862, “PubChem BioAssay data set” (2004).

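All cell lines were grown in 96-well plates and treated with compound for 48 hours. Abbreviation: GI50, concentration required for 50% inhibition of growth.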 The source made the active and inactive calls. No stated cut-off is given here; in the data, active = GI50 up to about 1.1 µM and inactive = higher. Bounds are passed on as bounds.

Some test systems named below: A549; DU-145; HCT-15; HOP-92; IGROV-1; LOX IMVI; MCF7; NCI-H226; NCI-H460; NCI/ADR-RES; PC-3; RPMI-8226; SF-268; SF-295; SK-MEL-5; SN12C; SW-620; T47D; U-251; UO-31.
Holding throughout (experiment): NCI anticancer screen, dose series, 48 h

With `CC(C)[Si](OC/C(=C/COC(C)(C)C)[C@H]1CC=C(C(=O)c2ccccc2N2CN(C)C(=O)N(C)C2)C1)(C(C)C)C(C)C`, the GI50 in the assay with A549 is 9.53 µM (inactive); with DU-145 it was 13.5 µM (inactive); with HCT-15, 12.3 µM; in the assay with HOP-92, 9.73 µM (inactive); with IGROV-1 it was 12.1 µM (inactive); with LOX IMVI, 2.07 µM (inactive). Further, the GI50 in the assay with MCF7 was 4.47 µM (inactive); in the assay on NCI-H226, 14.6 µM (inactive); with NCI-H460, 12.6 µM (inactive); in the assay with NCI/ADR-RES, 16.4 µM (inactive); in the assay with PC-3, 5.6 µM (inactive); in the assay with RPMI-8226 it was 6.05 µM (inactive). For the same compound, the GI50 in the assay with SF-268 is 6.58 µM (inactive); in the assay on SF-295 it was 12.9 µM (inactive); in the assay on SK-MEL-5 it was 9.95 µM (inactive); with SN12C it was 12.4 µM (inactive); with SW-620, 3.17 µM (inactive); in the assay on T47D, 7.73 µM (inactive). Besides, the GI50 in the assay with U-251 was 10.1 µM (inactive); in the assay on UO-31, 11.1 µM (inactive).
As for `O=C1Cc2c([nH]c3ccc([N+](=O)[O-])cc23)-c2ccccc2N1` [ALSTERPAULLONE], the GI50 with A549 is 0.211 µM (active); in the assay with DU-145, 0.209 µM (active); in the assay on HCT-15, 0.237 µM; in the assay on HOP-92, 7.93 µM (inactive); in the assay with IGROV-1 it was 0.53 µM (active); in the assay on LOX IMVI it was 0.181 µM (active). The GI50 is 0.508 µM (active) in the assay with MCF7; 0.275 µM (active) in the assay with NCI-H226; 0.396 µM (active) in the assay with NCI-H460; 0.61 µM (active) with NCI/ADR-RES; 0.836 µM (active) in the assay on PC-3; 0.438 µM (active) in the assay on RPMI-8226. Also, the GI50 in the assay on SF-268 is 0.471 µM (active); in the assay with SF-295, 0.92 µM (active); with SK-MEL-5, 0.174 µM (active); in the assay with SN12C, 0.391 µM (active); in the assay on SW-620, 0.348 µM (active); in the assay on T47D it was 2.88 µM (inactive). Moreover, the GI50 in the assay on U-251 is 0.471 µM (active); in the assay on UO-31, 0.109 µM (active).
Turning to `CN(C)CC1COC2Cc3ccccc3C1O2` (configuration not stated), the GI50 in the assay on A549 is > 100 µM (inactive); in the assay with DU-145, > 100 µM (inactive); in the assay on HCT-15, more than 100 µM; in the assay on HOP-92, > 100 µM (inactive); in the assay with IGROV-1 it was > 100 µM (inactive); in the assay with LOX IMVI, > 100 µM (inactive). Also, the GI50 in the assay on MCF7, with NCI-H226, with NCI-H460, in the assay on NCI/ADR-RES, with PC-3 and in the assay with RPMI-8226 was > 100 µM (inactive) throughout. Moreover, the GI50 in the assay with SF-268, in the assay with SF-295, in the assay on SK-MEL-5, in the assay with SN12C, in the assay on T47D and in the assay on U-251 was > 100 µM (inactive) throughout. Besides, the GI50 with UO-31 is > 100 µM (inactive).
As to `CCOc1ccc(/N=C/C=C(\Cl)c2ccc3ccccc3c2)cc1`, the GI50 with A549 is 29.8 µM (inactive); with DU-145, 16.7 µM (inactive); with HCT-15 it was 13.7 µM; with HOP-92 it was 15.3 µM (inactive); in the assay on IGROV-1 it was 17.1 µM (inactive); in the assay with LOX IMVI, 6.58 µM (inactive). The GI50 was 17.7 µM (inactive) with MCF7; 22.4 µM (inactive) in the assay with NCI-H226; 20 µM (inactive) with NCI-H460; 12.1 µM (inactive) in the assay on NCI/ADR-RES; 16.5 µM (inactive) with PC-3; 6.65 µM (inactive) in the assay on RPMI-8226. Also, the GI50 was 17.9 µM (inactive) with SF-268; 18.8 µM (inactive) in the assay with SF-295; 16.4 µM (inactive) in the assay with SK-MEL-5; 17.4 µM (inactive) in the assay on SN12C; 7.33 µM (inactive) in the assay on SW-620; 4.95 µM (inactive) in the assay on T47D. The figures for the GI50 in the assay on U-251 and in the assay on UO-31 were 17.5 µM (inactive) and 15.2 µM (inactive), respectively.
With `Clc1ccc(OCc2nnc(CCCCCCCCc3nnc(COc4ccc(Cl)cc4)n3Nc3ccccc3)n2Nc2ccccc2)cc1`, the GI50 was 1.19 µM (inactive) in the assay on A549; 19.1 µM (inactive) with DU-145; 4.06 µM with HCT-15; 21.4 µM (inactive) in the assay with HOP-92; 7.23 µM (inactive) with IGROV-1; 21.7 µM (inactive) in the assay on LOX IMVI. Further, the GI50 with MCF7 is 3.75 µM (inactive); with NCI-H226, 9.62 µM (inactive); with NCI-H460, 2.71 µM (inactive); in the assay with NCI/ADR-RES, 3.84 µM (inactive); with PC-3 it was 1.44 µM (inactive); in the assay with RPMI-8226 it was 0.21 µM (active). Further, the GI50 in the assay with SF-268 is 12.8 µM (inactive); in the assay with SF-295, 0.145 µM (active); in the assay on SK-MEL-5, 0.463 µM (active); in the assay on SN12C, 18.2 µM (inactive); in the assay on SW-620 it was 16.9 µM (inactive); in the assay on T47D, 22.1 µM (inactive). Besides, the GI50 in the assay on U-251 is 23.5 µM (inactive); in the assay with UO-31 it was 2.04 µM (inactive).
For the compound `O=C1N[C@@H](c2c[nH]c3cc(Br)ccc23)C(=O)N[C@H]1c1c[nH]c2cc(Br)ccc12`, the GI50 was > 100 µM (inactive) in the assay on A549; > 100 µM (inactive) in the assay on DU-145; more than 100 µM in the assay with HCT-15; 40.6 µM (inactive) in the assay with HOP-92; > 100 µM (inactive) in the assay with IGROV-1; > 100 µM (inactive) in the assay on LOX IMVI. For the same compound, the GI50 in the assay on MCF7, in the assay with NCI-H226, in the assay with NCI-H460, in the assay with NCI/ADR-RES, with PC-3 and in the assay on RPMI-8226 was > 100 µM (inactive) each time. In addition, the GI50 in the assay on SF-268 was 47.4 µM (inactive); in the assay on SF-295, > 100 µM (inactive); in the assay with SK-MEL-5, > 100 µM (inactive); with SN12C it was > 100 µM (inactive); with SW-620 it was > 100 µM (inactive); with T47D, > 100 µM (inactive). For the same compound, the GI50 is 25.8 µM (inactive) with U-251 and > 100 µM (inactive) with UO-31.
`O=C1CSC(c2cc3cc(Br)ccc3nc2Cl)N1c1ccc(F)c(Cl)c1` (configuration not stated): the GI50 in the assay on A549 is > 50 µM (inactive); in the assay on DU-145 it was > 50 µM (inactive); with HCT-15 it was 33 µM; in the assay on HOP-92, > 50 µM (inactive); in the assay on IGROV-1 it was 18.6 µM (inactive); in the assay on LOX IMVI, 22.9 µM (inactive). In addition, the GI50 in the assay on MCF7 is 18.9 µM (inactive); in the assay on NCI-H226, 43.5 µM (inactive); in the assay on NCI-H460, 40.8 µM (inactive); in the assay on NCI/ADR-RES, > 50 µM (inactive); with PC-3, 29.9 µM (inactive); in the assay on RPMI-8226, 18.1 µM (inactive). The GI50 is 29.5 µM (inactive) in the assay with SF-268; > 50 µM (inactive) with SF-295; > 50 µM (inactive) in the assay on SK-MEL-5; > 50 µM (inactive) with SN12C; 28.5 µM (inactive) in the assay with SW-620; 31.4 µM (inactive) with T47D. In the assay on UO-31, the GI50 is > 50 µM (inactive).
Turning to `CCCCCCNC(=O)c1cc(CCc2cc(O)ccc2O)ccc1O`, the GI50 with A549 was 7.83 µM (inactive); in the assay on DU-145, 6.78 µM (inactive); with HCT-15, 2.48 µM; in the assay with HOP-92, 1.72 µM (inactive); in the assay with IGROV-1, 2.1 µM (inactive); in the assay on LOX IMVI, 4.67 µM (inactive). Moreover, the GI50 in the assay with MCF7 was 3.25 µM (inactive); in the assay on NCI-H226, 4.23 µM (inactive); with NCI-H460, 8.57 µM (inactive); in the assay on NCI/ADR-RES, 3.61 µM (inactive); in the assay with PC-3, 2.18 µM (inactive); in the assay with RPMI-8226, 1.11 µM (active). Further, the GI50 in the assay with SF-268 was 2.77 µM (inactive); in the assay on SF-295, 14.1 µM (inactive); with SK-MEL-5, 4.62 µM (inactive); in the assay on SW-620 it was 7.66 µM (inactive); in the assay with T47D it was 1.85 µM (inactive); in the assay on U-251, 2.3 µM (inactive). Further, in the assay with UO-31, the GI50 is 1.55 µM (inactive).
Consider `CC(C)/C(Cl)=N/OC(=O)Nc1ccc(F)c(Cl)c1`, for which the GI50 is 18.1 µM (inactive) with A549; 16.2 µM (inactive) in the assay with DU-145; 1.93 µM with HCT-15; 1.59 µM (inactive) with HOP-92; 12.9 µM (inactive) in the assay on IGROV-1; 1.76 µM (inactive) with LOX IMVI. Moreover, the GI50 in the assay with MCF7 is 6.64 µM (inactive); in the assay with NCI-H226, 16.6 µM (inactive); in the assay on NCI-H460, 18.2 µM (inactive); in the assay on NCI/ADR-RES, 14.5 µM (inactive); in the assay with PC-3, 16.1 µM (inactive); with RPMI-8226 it was 1.87 µM (inactive). Moreover, the GI50 was 19.4 µM (inactive) with SF-268; 16.1 µM (inactive) in the assay on SF-295; 13.1 µM (inactive) in the assay with SK-MEL-5; 1.76 µM (inactive) in the assay on SN12C; 1.92 µM (inactive) in the assay with SW-620; 5.11 µM (inactive) with T47D. In addition, the GI50 with U-251 was 21.1 µM (inactive); in the assay with UO-31 it was 16.7 µM (inactive).
Consider `O=C1C(CN2CCCC2)CCCC1CN1CCCC1` (configuration not stated), for which the GI50 in the assay on A549 was 19.8 µM (inactive); in the assay on DU-145, 19.8 µM (inactive); with HCT-15, 2.19 µM; in the assay on HOP-92 it was 0.229 µM (active); with IGROV-1, 17.1 µM (inactive); in the assay with LOX IMVI, 2.52 µM (inactive). The GI50 with MCF7 is 0.658 µM (active); in the assay with NCI-H226 it was 22.1 µM (inactive); in the assay with NCI-H460, 22.8 µM (inactive); in the assay with NCI/ADR-RES, 6.1 µM (inactive); in the assay with PC-3 it was 18.2 µM (inactive); in the assay with RPMI-8226 it was 0.9 µM (active). The GI50 in the assay with SF-268 is 25.8 µM (inactive); with SF-295, > 38.7 µM (inactive); with SK-MEL-5, 16.6 µM (inactive); in the assay with SN12C, 17.1 µM (inactive); with SW-620, 0.129 µM (active); in the assay with T47D it was 2.56 µM (inactive). The figures for the GI50 in the assay with U-251 and in the assay on UO-31 were 19.6 µM (inactive) and 0.791 µM (active), respectively.
